Experiments:
[1] = traditional formulations; cited from earlier work
[2] = Dissolution experiments with TMC125/nicotinamide co-crystal (10 mM HCl with 1% TPGS, HPLC); format: physicochemical; details: Simulated Gastric Fluid with 1% TPGS, 37° C., 500 rpm
Experimental: This dissolution experiment was focused on looking at the difference between the cocrystal and TMC125 free base both neat and mixed with HPMC E5 Cps.
A: 100 mg co-crystal: 100 mg HPMC E5 Cps (powder blend)
B: 100 mg co-crystal (powder)
C: 78 mg free base: 100 mg HPMC E5 Cps (powder blend)
D: 78 mg free base (powder)
Powders were dispensed to 20 mL vials and in 20 mL of 10 mM HCl with 1% TPGS (d-alpha-tocopheryl polyethylene glycol 1000 succinate) was added to each vial. Each […], filtered through a 0.45 μm nylon filter via centrifugation and the solute was diluted in half and analyzed by HPLC for the concentration of TMC125.

[3] = cited from earlier work

Concentration of TMC125 ([2]; time 5 min): 22.36 µg/mL
Concentration of TMC125 ([2]; time 10 min): 52.04 µg/mL
Concentration of TMC125 ([2]; time 20 min): 57.03 µg/mL
Concentration of TMC125 ([2]; time 30 min): 58.96 µg/mL
Concentration of TMC125 ([2]; time 45 min): 59.83 µg/mL
Concentration of TMC125 ([2]; time 60 min): 60.10 µg/mL
SMILES: Cc1cc(C#N)cc(C)c1Oc1nc(Nc2ccc(C#N)cc2)nc(N)c1Br [Neat TMC125 FB, 4-[[6-amino-5-bromo-2-[(4-cyanophenyl)amino]-4-pyrimidinyl]oxy]-3,5-dimethylbenzonitrile]
bioavailability [1]: very low
solubility in aqueous media [3]: very insoluble
